PubChem BioAssay (NCI)
“And” between values parts separate entries of the source, which are not always exact repeats. Equal values may be shown once.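 Five compound concentrations were applied to cells in 96-well plates for 48 hours; endpoints were derived by simple linear interpolation of the resulting dose-response curve. TGI marks complete inhibition of growth.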 Where a SMILES comes first, the peptide text is derived from it. The star is where a group is joined. Cbz = O=C(OCc1ccccc1)*; Boc = CC(C)(C)OC(=O)*; OSu = O=C1CCC(=O)N1O*; Bn = c1ccc(C*)cc1

Assays:
Assay in all cases: NCI-60 cell line screen, 48 h
HT29 colon = test system: HT29 colon
SN12C renal = test system: SN12C renal
TK-10 renal = test system: TK-10 renal
MDA-MB-231 breast = test system: MDA-MB-231 breast
DU-145 prostate = test system: DU-145 prostate
CAKI-1 renal = test system: CAKI-1 renal
786-0 renal = test system: 786-0 renal
SF-539 CNS = test system: SF-539 CNS
K-562 leukemia = test system: K-562 leukemia
HCT-116 colon = test system: HCT-116 colon
IGROV1 ovarian = test system: IGROV1 ovarian
EKVX NSCLC = test system: EKVX NSCLC
A549 NSCLC = test system: A549 NSCLC
NCI-H460 lung = test system: NCI-H460 lung
LOX IMVI melanoma = test system: LOX IMVI melanoma

| Structure (SMILES) | TGI (HT29 colon) | TGI (SN12C renal) [µM] | TGI (TK-10 renal) | TGI (MDA-MB-231 breast) [µM] | TGI (DU-145 prostate) [µM] | TGI (CAKI-1 renal) [µM] | TGI (786-0 renal) | TGI (SF-539 CNS) | TGI (K-562 leukemia) [µM] | TGI (HCT-116 colon) [µM] | TGI (IGROV1 ovarian) | TGI (EKVX NSCLC) | TGI (A549 NSCLC) | TGI (NCI-H460 lung) | TGI (LOX IMVI melanoma) [µM] |
| --- | --- | --- | --- | --- | --- | --- | --- | --- | --- | --- | --- | --- | --- | --- | --- |
| Cn1c(=O)c2c(nc(N/N=C3/SCC(=O)N3Cc3ccccc3)n2C)n(C)c1=O | > 100 µM | > 100 | > 100 µM | > 100 | > 100 | > 100 | > 100 µM | > 100 µM | > 100 | > 100 | > 100 µM | > 100 µM | > 100 µM | > 100 µM |  |
| O=C(c1ccccc1)c1cc(Cl)ccc1NCn1nnc2ccccc21 | > 100 µM | > 100 | > 100 µM |  |  |  | > 100 µM | > 100 µM | > 100 |  | > 100 µM | > 100 µM | > 100 µM | > 100 µM | > 100 |
| C=CCNC1=C2C[C@@H](C)C[C@@H](OC)[C@H](OC(=O)CCN(C)C)[C@H](C)/C=C(\C)[C@@H](OC(N)=O)[C@H](OC)/C=C\C=C(/C)C(=O)NC(=CC1=O)C2=O | 12.8 µM | 17.9 | 17.3 µM | 8.89 |  | 45 | 21.2 µM | 16.8 µM | > 43.7 | 16.5 | 14.5 µM | 22.9 µM | 17.4 µM | 16.1 µM | 11.2 |
| COc1ccc2c(c1)CC[C@@H]1C2CC[C@]2(C)C(=C=CP(=O)(O)O)CCC12 (stereo partly specified) | > 100 µM | > 100 | > 100 µM |  | > 100 | > 100 | > 100 µM | > 100 µM | > 100 | > 100 | > 100 µM | > 100 µM | > 100 µM | > 100 µM | > 100 |
| CCCCCCCCCCCCC1N=C(N)N2CCCC2=C1C(=O)OC (stereo unspecified) | 3.06 µM |  | > 48.7 µM | 4.38 | 21.4 | 9.03 | 3.04 µM | 13.2 µM | 2.91 | 3.34 | 7.94 µM | 35.4 µM | 36.2 µM | 3.23 µM |  |
| CN(C)C(=O)Oc1ccc(C(=S)Nc2ccccc2)cc1 | > 100 µM |  |  |  | > 100 | > 100 | > 100 µM | > 100 µM | > 100 | > 100 | > 100 µM | > 100 µM | > 100 µM | > 100 µM | > 100 |
| O=S(=O)(O)c1cc(O)c(N=Nc2ccc3ccccc3c2O)c2ccccc12 | 72.3 µM | > 100 | > 100 µM | 94.7 | 31.6 | 70.6 | > 100 µM |  | 74.6 | > 100 | 32.3 µM | > 100 µM | 52.6 µM |  |  |
| CC(CC=O)Nc1nn2c(=O)c3ccccc3nc2s1 (stereo unspecified) | > 100 µM | > 100 | > 100 µM |  | > 100 | > 100 | > 100 µM | > 100 µM | > 100 | > 100 | > 100 µM | > 100 µM | > 100 µM | > 100 µM | > 100 |
| CC1=CCN(c2ccccn2)OC1c1ccccc1 (stereo unspecified) | > 100 µM | > 100 |  |  |  | > 100 | > 100 µM | > 100 µM | > 100 | > 100 | > 100 µM | > 100 µM | > 100 µM | > 100 µM | > 100 |
| CCC(=C/[C@H](C)C/C=C/C(C)=C/[C@@H](C)C(=O)[C@@H](C)[C@H](O)[C@@H](C)CC)/C=C/[C@H]1CC=CC(=O)O1 | 2.48 µM and 10.7 µM |  | 1.91 µM and 14.3 µM |  | < 0.0012 | 2.88 | 1.26 µM and 10.8 µM | 0.174 µM and 1.35 µM |  | 0.002 | 3.96 µM and 10.4 µM | 12 µM and 14.3 µM | 6.32 µM and 13.5 µM | 1.26 µM and 1.64 µM | 1.22 |
| CSc1nc[nH]c1C(N)=S | > 100 µM |  | > 100 µM | > 100 | > 100 | > 100 | > 100 µM | > 100 µM |  | > 100 | > 100 µM | > 100 µM | > 100 µM |  | > 100 |
| CCOC(=O)c1c(-c2ccccc2)c(C)cn1C | > 10 µM | > 10 | > 10 µM | 0.772 | > 10 |  | > 10 µM | > 10 µM | > 10 | > 10 | > 10 µM | > 10 µM | > 10 µM | > 10 µM |  |
| C/C(CC(=O)Nc1cccc([N+](=O)[O-])c1)=N\NC(=O)C[n+]1ccccc1 | > 100 µM |  | > 100 µM |  |  |  | > 100 µM | > 100 µM |  | > 100 | > 100 µM | > 100 µM | > 100 µM | > 100 µM | > 100 |
| C/C(Nc1ccc(Cl)cc1)=C1/CCOC1=O | > 100 µM | > 100 | > 100 µM | > 100 | > 100 | > 100 | > 100 µM | > 100 µM | > 100 | > 100 | > 100 µM | > 100 µM | > 49 µM | > 100 µM |  |
| O=c1[nH]c2ccc([N+](=O)[O-])cc2nc1/C(=N/Nc1ccccc1)C(O)c1ccco1 (stereo unspecified) | > 100 µM | > 100 | > 100 µM |  |  |  | > 100 µM | > 100 µM | > 100 | > 100 | > 100 µM | > 100 µM | > 100 µM | > 100 µM | > 100 |
| COc1ccc(/C=N/NC(=S)Nc2cc(C)ccc2OC)cc1 | 79.4 µM | 68.6 |  |  | > 100 | > 100 | 70.9 µM | 49.3 µM | 13 | > 100 | > 100 µM | 59.5 µM | > 100 µM |  | > 100 |
| CC(C)(C)OC(=O)NC(Cc1ccc(OCc2ccccc2)cc1)C(=O)NC(CCCCNC(=O)OCc1ccccc1)C(=O)NC(CCCCNC(=O)OCc1ccccc1)C(=O)ON1C(=O)CCC1=O (stereo unspecified) (Boc-Tyr(Bn)-Lys(Cbz)-Lys(Cbz)-OSu; configuration not given here) | > 100 µM |  | > 100 µM |  | > 100 | > 100 | 37.1 µM |  |  | 58.7 | > 100 µM | > 100 µM | > 100 µM | > 100 µM |  |
